Among the data in ChEMBL document CHEMBL5728798, “Macrocycles as factor XIA inhibitors” (2021) are Ki values, retold here.

For this experiment, the target named is Coagulation factor XI (Homo sapiens, UniProt P03951). Put plainly: In Vitro Assays: Factor XIa determinations were made in 50 mM HEPES buffer at pH 7.4 containing 145 mM NaCl, 5 mM KCl, and 0.1% PEG 8000 (polyethylene glycol; JT Baker or Fisher Scientific). Determinations were made using purified human Factor XIa at a final concentration of 25-200 pM (Haematologic Technologies) and the synthetic substrate S-2366 (pyroGlu-Pro-Arg-pNA; CHROMOGENIX® or AnaSpec) at a concentration of 0.0002-0.001 M.
Sequence of Coagulation factor XI (P03951 19-387 limits assumed): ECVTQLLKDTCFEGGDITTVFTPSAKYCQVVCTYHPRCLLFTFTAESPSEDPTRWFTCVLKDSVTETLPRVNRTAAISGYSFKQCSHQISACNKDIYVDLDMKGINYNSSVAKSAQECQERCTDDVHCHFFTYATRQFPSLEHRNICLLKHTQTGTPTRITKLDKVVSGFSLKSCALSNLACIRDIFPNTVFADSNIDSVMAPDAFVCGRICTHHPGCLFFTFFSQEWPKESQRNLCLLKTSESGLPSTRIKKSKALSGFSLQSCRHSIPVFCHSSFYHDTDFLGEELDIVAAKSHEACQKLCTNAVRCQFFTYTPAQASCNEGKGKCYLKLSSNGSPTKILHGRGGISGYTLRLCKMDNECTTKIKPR
Sequence of Coagulation factor XI (P03951 388-625 limits assumed): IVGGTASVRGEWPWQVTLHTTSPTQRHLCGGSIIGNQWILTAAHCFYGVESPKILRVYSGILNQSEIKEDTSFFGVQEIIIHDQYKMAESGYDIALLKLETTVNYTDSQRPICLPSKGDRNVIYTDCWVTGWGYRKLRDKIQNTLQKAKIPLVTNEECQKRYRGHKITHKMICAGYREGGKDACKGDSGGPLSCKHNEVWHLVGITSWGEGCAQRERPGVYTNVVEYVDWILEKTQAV

For `COC(=O)Nc1ccc2c(c1)N[C@@H](C(F)F)CCCC[C@H](NC(=O)/C=C/c1cc(Cl)ccc1-n1cnnn1)c1nc-2c[nH]1`, the Ki was determined as 289 nM.

Usually Ki stands for the equilibrium dissociation constant of an inhibitor or competing ligand from its target. Higher therefore signals weaker binding.
